Measured values: patent publication US12522587B2, “Cancer treatments targeting cancer stem cells” (Remedy Plan, Inc., priority 2018, dated 2026)

Tested on: AGS human gastric adenocarcinoma cells
Assay: Human microarray study (Affymetrix Clariom S) of treated AGS cells
Assay type: cell-based
Details: two days, positive = downregulated
Description: AGS human gastric adenocarcinoma cells were treated with compound I-1, or DMSO alone (as a negative control) for two days. After two days, RNA was isolated from compound I-1 treated cells and DMSO treated cells, in duplicate, and subjected to microarray analysis using AFFYMETRIX CLARIOM S microarrays. Data were represented as fold change relative to the compound I-1 treated cells, negative values represented genes that were on higher in compound I-1 treated cells than in DMSO treated cells, and positive values represented genes that were on higher in DMSO treated cells than in compound I-1 treated cells. Values were averaged for the duplicate samples. We included data for the genes whose expression was altered by more than 3 fold, either up or down, in response to compound I-1.
Negative numbers indicate fold upregulation upon drug treatment. Positive numbers indicate fold downregulation upon drug treatment. […] In addition, Chac1, PCK2, and SLC7A11 were all shown to have a tumor promoting activity and to be associated with the more dangerous and lethal forms of cancer, and these three genes were the three most strongly repressed genes measured in this analysis. There were other examples in the data that supported this model, but the overall model was that compound I-1 increased the expression of tumor suppressor genes, and decreased the expression of tumor promoting genes.

CCC(=O)N1CCc2cc(-c3ccc(C(=O)NCc4cccnc4)cc3)ccc21 [Compound I-1] was tested, and the “Fold Change CEBPG” value was 3.29 fold, the “Fold Change CHAC1” value was 43.64 fold and the “Fold Change CRNDE” value was 7.6 fold. For the same molecule, the “Fold Change CTH” value was 12.23 fold, the “Fold Change CTNS” value was 3.16 fold and the “Fold Change CYP1A1” value was 12.34 fold. For the same molecule, the “Fold Change DCLRE1A” value was 3.36 fold, the “Fold Change DDIT3” value was 3.76 fold and the “Fold Change DDIT4” value was 14.73 fold. The “Fold Change DEPTOR” value was 3.05 fold, the “Fold Change DMBT1” value was 3.25 fold and the “Fold Change EEF2KMT” value was 4.01 fold. For the same molecule, the “Fold Change EFHC1” value was 3.67 fold, the “Fold Change EIF4EBP1” value was 6.66 fold and the “Fold Change ERICH2” value was 3.35 fold. The “Fold Change EXOSC8” value was 3.68 fold, the “Fold Change FAIM” value was 3.09 fold and the “Fold Change FAM27E3” value was 4.39 fold. For the same molecule, the “Fold Change FAM86B1” value was 3.53 fold, the “Fold Change FAM86C1” value was 3.18 fold and the “Fold Change FAM111B” value was 3.46 fold. For the same molecule, the “Fold Change FAM216A” value was 3 fold, the “Fold Change FIGNL1” value was 4.84 fold and the “Fold Change FILIP1L” value was 3.7 fold. The “Fold Change FUT1” value was 3.48 fold, the “Fold Change GARS” value was 3.24 fold and the “Fold Change GEN1” value was 3.39 fold. The “Fold Change GPX8” value was 3.7 fold, the “Fold Change GRB10” value was 3.1 fold and the “Fold Change GSTM2” value was 3.25 fold. The “Fold Change GSTM4” value was 4.02 fold, the “Fold Change GTPBP2” value was 4.3 fold and the “Fold Change H1F0” value was 3.59 fold. The “Fold Change HAX1” value was 3.68 fold, the “Fold Change HIST1H1B” value was 4.91 fold and the “Fold Change HIST1H1C” value was 4.26 fold. The “Fold Change HIST1H1D” value was 5.18 fold, the “Fold Change HIST1H1E” value was 3.75 fold and the “Fold Change HIST1H2AB” value was 6.88 fold. For the same molecule, the “Fold Change HIST1H2AE” value was 5.92 fold, the “Fold Change HIST1H2AG” value was 5.06 fold and the “Fold Change HIST1H2AI” value was 5.81 fold. For the same molecule, the “Fold Change HIST1H2AJ” value was 3.77 fold, the “Fold Change HIST1H2AK” value was 3.52 fold and the “Fold Change HIST1H2AL; HIST1H2BN” value was 3.72 fold. For the same molecule, the “Fold Change HIST1H2AM; HIST1H3J” value was 6.91 fold, the “Fold Change HIST1H2BB” value was 3.09 fold and the “Fold Change HIST1H2BE” value was 3.05 fold. The “Fold Change HIST1H2BF” value was 3.75 fold, the “Fold Change HIST1H2BG” value was 3.8 fold and the “Fold Change HIST1H2BH” value was 3.09 fold. The “Fold Change HIST1H2BI” value was 8.02 fold, the “Fold Change HIST1H2BJ” value was 4.83 fold and the “Fold Change HIST1H2BK” value was 3.06 fold. The “Fold Change HIST1H2BL” value was 5.51 fold, the “Fold Change HIST1H2BM” value was 12.33 fold and the “Fold Change HIST1H3A” value was 3.04 fold. The “Fold Change HIST1H3B” value was 5.94 fold, the “Fold Change HIST1H3D; HIST1H2AD” value was 4.82 fold and the “Fold Change HIST1H3F” value was 6.21 fold. The “Fold Change HIST1H3G” value was 9.34 fold, the “Fold Change HIST1H3H” value was 7.63 fold and the “Fold Change HIST1H3I” value was 4.49 fold. The “Fold Change HIST1H4A” value was 5.75 fold, the “Fold Change HIST1H4D” value was 3.02 fold and the “Fold Change HIST1H4H” value was 3.25 fold. The “Fold Change HIST2H2AA3; HIST2H2AA4” value was 3.2 fold, the “Fold Change HIST2H2AA4; HIST2H2AA3” value was 3.08 fold and the “Fold Change HIST2H3A” value was 10.31 fold. The “Fold Change HIST2H3A; HIST2H3C” value was 8.95 fold, the “Fold Change HIST2H3D” value was 4.21 fold and the “Fold Change HIST2H4A; HIST2H4B” value was 3.94 fold. The “Fold Change HIST2H4B; HIST2H4A” value was 3.79 fold, the “Fold Change HMMR” value was 4.62 fold and the “Fold Change HOXB9” value was 5.66 fold. For the same molecule, the “Fold Change IARS” value was 3.29 fold, the “Fold Change IFRD1” value was 6.11 fold and the “Fold Change IFT88” value was 4.63 fold. For the same molecule, the “Fold Change IGF2BP3” value was 5.34 fold, the “Fold Change IL20RB” value was 4.75 fold and the “Fold Change INHBE” value was 12.74 fold. The “Fold Change IRAK1BP1” value was 3.59 fold, the “Fold Change IZUMO1” value was 4.5 fold and the “Fold Change JDP2” value was 4.94 fold. For the same molecule, the “Fold Change KIF15” value was 3.66 fold, the “Fold Change KIF21B” value was 3.52 fold and the “Fold Change KLHL5” value was 3.17 fold. The “Fold Change LGALS4” value was 3.06 fold, the “Fold Change LMO4” value was 3.1 fold and the “Fold Change LRRC8D” value was 3.82 fold. For the same molecule, the “Fold Change LYRM7” value was 3.58 fold, the “Fold Change MARS; MIR6758” value was 3.79 fold and the “Fold Change MAT2A” value was 5.04 fold. The “Fold Change MB21D2” value was 4.66 fold, the “Fold Change METTL4” value was 4.39 fold and the “Fold Change MINA” value was 3.05 fold. For the same molecule, the “Fold Change MIR17HG; MIR17; MIR18A; MIR19A; MIR19B1; MIR20A; MIR92A1” value was 3.18 fold, the “Fold Change MOCOS” value was 5.87 fold and the “Fold Change MTHFD2” value was 3.26 fold. For the same molecule, the “Fold Change NCOA5” value was 3 fold, the “Fold Change NCOA7” value was 3.2 fold and the “Fold Change NEDD4” value was 3.11 fold. The “Fold Change NOX1” value was 6.01 fold, the “Fold Change NPIPA2” value was 3.06 fold and the “Fold Change NPIPA3” value was 3.17 fold. For the same molecule, the “Fold Change NPIPA5” value was 3.15 fold, the “Fold Change NPIPA7; NPIPA8; PKD1P1” value was 3.01 fold and the “Fold Change NPIPA8” value was 3.2 fold. The “Fold Change NUPR1” value was 5.76 fold, the “Fold Change ORAOV1” value was 3.3 fold and the “Fold Change PCK2” value was 17.83 fold. The “Fold Change PDK1” value was 3.5 fold, the “Fold Change PHLDB2; PLCXD2” value was 3.75 fold and the “Fold Change PKD1; MIR6511B2; MIR6511B1” value was 3.36 fold. The “Fold Change PKD2” value was 3.76 fold, the “Fold Change PKDCC” value was 3.89 fold and the “Fold Change PRIM1” value was 4.42 fold. The “Fold Change PSAT1” value was 7.92 fold, the “Fold Change PSPH” value was 4.23 fold and the “Fold Change PTER” value was 3.93 fold. The “Fold Change PTPRB” value was 3.96 fold, the “Fold Change PYROXD1” value was 3.74 fold and the “Fold Change RASGRP3” value was 3.19 fold. For the same molecule, the “Fold Change RASIP1” value was 3.21 fold, the “Fold Change RBBP9” value was 3.05 fold and the “Fold Change RBCK1” value was 4.36 fold. The “Fold Change REG4” value was 3.04 fold, the “Fold Change RFXAP” value was 4.14 fold and the “Fold Change RNF170; MIR4469” value was 3.95 fold. The “Fold Change S100P” value was 4.36 fold, the “Fold Change SERPINB8” value was 6.07 fold and the “Fold Change SETMAR” value was 3.32 fold. The “Fold Change SH2B3” value was 4.5 fold, the “Fold Change SHMT2” value was 3.22 fold and the “Fold Change SLC1A4” value was 8.26 fold. The “Fold Change SLC1A5” value was 4.04 fold, the “Fold Change SLC6A9” value was 7.78 fold and the “Fold Change SLC7A1” value was 3.19 fold. For the same molecule, the “Fold Change SLC7A5” value was 7.31 fold, the “Fold Change SLC7A11” value was 15.27 fold and the “Fold Change SLC16A4” value was 3.65 fold. The “Fold Change SLC38A1” value was 3.03 fold, the “Fold Change SLC43A1” value was 8.25 fold and the “Fold Change SLC46A1” value was 5.39 fold. The “Fold Change SLCO1B3” value was 3.61 fold, the “Fold Change ST6GALNAC3” value was 4.78 fold and the “Fold Change STAMBPL1” value was 3 fold. The “Fold Change STPG1” value was 3.97 fold, the “Fold Change SYNPO” value was 3.2 fold and the “Fold Change TADA2A” value was 3.37 fold. For the same molecule, the “Fold Change TFF1” value was 11.81 fold, the “Fold Change THOC1” value was 3.18 fold and the “Fold Change TMEM218” value was 3.29 fold. For the same molecule, the “Fold Change TNFRSF9” value was 8.19 fold, the “Fold Change TSEN15” value was 3.5 fold and the “Fold Change TUBE1” value was 5.83 fold. The “Fold Change UNC93A” value was 3.31 fold, the “Fold Change WARS” value was 4.85 fold and the “Fold Change WBP4” value was 3.63 fold. The “Fold Change XPA” value was 3.25 fold, the “Fold Change XRCC2” value was 3.5 fold and the “Fold Change YAE1D1” value was 3.02 fold. The “Fold Change ZBED8” value was 4.58 fold, the “Fold Change ZC3H8” value was 4.04 fold and the “Fold Change ZCCHC8” value was 3.9 fold. The “Fold Change ZFAND1” value was 3.29 fold, the “Fold Change ZNF302” value was 4.83 fold and the “Fold Change ZNF518A” value was 4.12 fold. The “Fold Change ZNF780B” value (first ZNF780B entry) was 3.19 fold and the “Fold Change ZNF780B” value (second ZNF780B entry) was 3.19 fold.
